Test results as given in patent publication US12049450B2, “Pyridyloxy-carboxylate derivative and preparation method therefor, herbicidal composition, and use” (Qingdao Kingagroot Chemical Compound Co., Ltd., priority 2018, dated 2024).

Tests used:
Experiment in all cases: Post-emergence test experiment (greenhouse pot, spray at 2-3 leaf stage)
Type in all cases: in vivo
Conditions in all cases: 1000 g/ha; post-emergence spray at 2-3 leaf stage; assessed after 3 weeks; fresh weight inhibition rate
Abutilon theophrasti = test system: Abutilon theophrasti
In short: (§1)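 Weed seeds sown in soil-filled pots in greenhouse, sprayed at 2-3 leaf stage (2 weeks after sowing) with compound in acetone/tween-80 plus methyl oleate emulsible concentrate (1.5 L/ha) diluted in water. Fresh-weight growth inhibition scored after 3 weeks on 0-5 scale (5: >85%, 0: <5%).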

Digitaria sanguinalis = test system: Digitaria sanguinalis
In short: as §1

Echinochloa crusgalli = test system: Echinochloa crusgalli
In short: as §1

Galium spurium = test system: Galium spurium
In short: as §1

Monochoria vaginalis = test system: Monochoria vaginalis
In short: as §1

| Structure (SMILES) | Activity level (growth inhibition rate) Abutilon theophrasti (Abutilon theophrasti) | Activity level (growth inhibition rate) Digitaria sanguinalis (Digitaria sanguinalis) | Activity level (growth inhibition rate) Echinochloa crusgalli (Echinochloa crusgalli) | Activity level (growth inhibition rate) Galium spurium (Galium spurium) | Activity level (growth inhibition rate) Monochoria Vaginalis (Monochoria vaginalis) |
| --- | --- | --- | --- | --- | --- |
| CC(Oc1nc(F)c(Cl)c(NC(=O)c2ccccc2)c1Cl)C(=O)OCc1ccccc1 (stereo not drawn) [Compound 194] | 5 (Level 5: the growth inhibition rate is greater than 85%) | 5 (Level 5: the growth inhibition rate is greater than 85%) | 5 (Level 5: the growth inhibition rate is greater than 85%) | 5 (Level 5: the growth inhibition rate is greater than 85%) | 5 (Level 5: the growth inhibition rate is greater than 85%) |
| CC(Oc1nc(F)c(Cl)c(NCc2ccccc2)c1Cl)C(=O)OCc1ccccc1 (stereo not drawn) [Compound 195] | 5 (Level 5: the growth inhibition rate is greater than 85%) | 5 (Level 5: the growth inhibition rate is greater than 85%) | 5 (Level 5: the growth inhibition rate is greater than 85%) | 5 (Level 5: the growth inhibition rate is greater than 85%) | 5 (Level 5: the growth inhibition rate is greater than 85%) |
| Cc1cccc(COC(=O)C(C)Oc2nc(F)c(Cl)c(N)c2Cl)c1 (stereo not drawn) [Compound 196] | 5 (Level 5: the growth inhibition rate is greater than 85%) | 5 (Level 5: the growth inhibition rate is greater than 85%) | 5 (Level 5: the growth inhibition rate is greater than 85%) | 5 (Level 5: the growth inhibition rate is greater than 85%) | 5 (Level 5: the growth inhibition rate is greater than 85%) |
| Cc1ccc(COC(=O)C(C)Oc2nc(F)c(Cl)c(N)c2Cl)cc1 (stereo not drawn) [Compound 197] | 5 (Level 5: the growth inhibition rate is greater than 85%) | 5 (Level 5: the growth inhibition rate is greater than 85%) | 5 (Level 5: the growth inhibition rate is greater than 85%) | 5 (Level 5: the growth inhibition rate is greater than 85%) | 5 (Level 5: the growth inhibition rate is greater than 85%) |
| CC(Oc1nc(F)c(Cl)c(N)c1Cl)C(=O)OCc1cccc(F)c1 (stereo not drawn) [Compound 198] | 5 (Level 5: the growth inhibition rate is greater than 85%) | 5 (Level 5: the growth inhibition rate is greater than 85%) | 5 (Level 5: the growth inhibition rate is greater than 85%) | 5 (Level 5: the growth inhibition rate is greater than 85%) | 5 (Level 5: the growth inhibition rate is greater than 85%) |
| CC(Oc1nc(F)c(Cl)c(N)c1Cl)C(=O)OCc1ccc(F)cc1 (stereo not drawn) [Compound 199] | 5 (Level 5: the growth inhibition rate is greater than 85%) | 5 (Level 5: the growth inhibition rate is greater than 85%) | 5 (Level 5: the growth inhibition rate is greater than 85%) | 5 (Level 5: the growth inhibition rate is greater than 85%) | 5 (Level 5: the growth inhibition rate is greater than 85%) |
| CC(Oc1nc(F)c(Cl)c(N)c1Cl)C(=O)OCc1ccccc1C#N (stereo not drawn) [Compound 200] | 5 (Level 5: the growth inhibition rate is greater than 85%) | 5 (Level 5: the growth inhibition rate is greater than 85%) | 5 (Level 5: the growth inhibition rate is greater than 85%) | 5 (Level 5: the growth inhibition rate is greater than 85%) | 5 (Level 5: the growth inhibition rate is greater than 85%) |
| CC(Oc1nc(F)c(Cl)c(N)c1Cl)C(=O)OCc1cccc(C#N)c1 (stereo not drawn) [Compound 201] | 5 (Level 5: the growth inhibition rate is greater than 85%) | 5 (Level 5: the growth inhibition rate is greater than 85%) | 5 (Level 5: the growth inhibition rate is greater than 85%) | 5 (Level 5: the growth inhibition rate is greater than 85%) | 5 (Level 5: the growth inhibition rate is greater than 85%) |
| CC(Oc1nc(F)c(Cl)c(N)c1Cl)C(=O)OCc1ccccc1Cl (stereo not drawn) [Compound 202] | 5 (Level 5: the growth inhibition rate is greater than 85%) | 5 (Level 5: the growth inhibition rate is greater than 85%) | 5 (Level 5: the growth inhibition rate is greater than 85%) | 5 (Level 5: the growth inhibition rate is greater than 85%) | 5 (Level 5: the growth inhibition rate is greater than 85%) |
| CC(Oc1nc(F)c(Cl)c(N)c1Cl)C(=O)OCc1cccc(Cl)c1 (stereo not drawn) [Compound 203] | 5 (Level 5: the growth inhibition rate is greater than 85%) | 5 (Level 5: the growth inhibition rate is greater than 85%) | 5 (Level 5: the growth inhibition rate is greater than 85%) | 5 (Level 5: the growth inhibition rate is greater than 85%) | 5 (Level 5: the growth inhibition rate is greater than 85%) |
| CC(Oc1nc(F)c(Cl)c(N)c1Cl)C(=O)OCc1ccc(Cl)cc1 (stereo not drawn) [Compound 204] | 5 (Level 5: the growth inhibition rate is greater than 85%) | 5 (Level 5: the growth inhibition rate is greater than 85%) | 5 (Level 5: the growth inhibition rate is greater than 85%) | 5 (Level 5: the growth inhibition rate is greater than 85%) | 5 (Level 5: the growth inhibition rate is greater than 85%) |
| CC(Oc1nc(F)c(Cl)c(N)c1Cl)C(=O)OCc1ccccc1Br (stereo not drawn) [Compound 205] | 5 (Level 5: the growth inhibition rate is greater than 85%) | 5 (Level 5: the growth inhibition rate is greater than 85%) | 5 (Level 5: the growth inhibition rate is greater than 85%) | 5 (Level 5: the growth inhibition rate is greater than 85%) | 5 (Level 5: the growth inhibition rate is greater than 85%) |
| CC(Oc1nc(F)c(Cl)c(N)c1Cl)C(=O)OCc1cccc(Br)c1 (stereo not drawn) [Compound 206] | 5 (Level 5: the growth inhibition rate is greater than 85%) | 5 (Level 5: the growth inhibition rate is greater than 85%) | 5 (Level 5: the growth inhibition rate is greater than 85%) | 5 (Level 5: the growth inhibition rate is greater than 85%) | 5 (Level 5: the growth inhibition rate is greater than 85%) |
| CC(Oc1nc(F)c(Cl)c(N)c1Cl)C(=O)OCc1ccc(Br)cc1 (stereo not drawn) [Compound 207] | 5 (Level 5: the growth inhibition rate is greater than 85%) | 5 (Level 5: the growth inhibition rate is greater than 85%) | 5 (Level 5: the growth inhibition rate is greater than 85%) | 5 (Level 5: the growth inhibition rate is greater than 85%) | 5 (Level 5: the growth inhibition rate is greater than 85%) |
| CC(Oc1nc(F)c(Cl)c(N)c1Cl)C(=O)OCc1ccccc1C(F)(F)F (stereo not drawn) [Compound 208] | 5 (Level 5: the growth inhibition rate is greater than 85%) | 5 (Level 5: the growth inhibition rate is greater than 85%) | 5 (Level 5: the growth inhibition rate is greater than 85%) | 5 (Level 5: the growth inhibition rate is greater than 85%) | 5 (Level 5: the growth inhibition rate is greater than 85%) |
